Assay results from ChEMBL document CHEMBL1155239, “Structure-guided development of selective TbcatB inhibitors” (J Med Chem, 2009).

Experiments:
[1] = test system: Trypanosoma brucei; test: Antitrypanosomal activity against Trypanosoma brucei after 48 hrs; format: functional, organism-based
[2] = test system: Raji; test: Cytotoxicity against human Raji cells after 72 hrs by alamar blue assay; format: ADME, cell-based
[3] = Inhibition of Trypanosoma brucei cathepsin B expressed in Pichia pastoris
[4] = test system: HEK293; test: Cytotoxicity against human HEK293 cells after 72 hrs by alamar blue assay; format: ADME, cell-based; settings: HEK293, 72 h
[5] = test system: HepG2; test: Cytotoxicity against human HepG2 cells after 72 hrs by alamar blue assay; format: ADME, cell-based; settings: HepG2, 72 h
[6] = test system: BJ; test: Cytotoxicity against human BJ cells after 72 hrs by alamar blue assay; format: ADME, cell-based
[7] = molecular target: Rhodesain (Trypanosoma brucei rhodesiense, UniProt Q95PM0); test: Inhibition of Trypanosoma brucei rhodesiense rhodesain
[8] = molecular target: Procathepsin L (Homo sapiens, UniProt P07711); test: Inhibition of human liver cathepsin L
[9] = molecular target: Cathepsin B (Homo sapiens, UniProt P07858); test: Inhibition of human liver cathepsin B

Sequence of Rhodesain (Q95PM0 whole entry): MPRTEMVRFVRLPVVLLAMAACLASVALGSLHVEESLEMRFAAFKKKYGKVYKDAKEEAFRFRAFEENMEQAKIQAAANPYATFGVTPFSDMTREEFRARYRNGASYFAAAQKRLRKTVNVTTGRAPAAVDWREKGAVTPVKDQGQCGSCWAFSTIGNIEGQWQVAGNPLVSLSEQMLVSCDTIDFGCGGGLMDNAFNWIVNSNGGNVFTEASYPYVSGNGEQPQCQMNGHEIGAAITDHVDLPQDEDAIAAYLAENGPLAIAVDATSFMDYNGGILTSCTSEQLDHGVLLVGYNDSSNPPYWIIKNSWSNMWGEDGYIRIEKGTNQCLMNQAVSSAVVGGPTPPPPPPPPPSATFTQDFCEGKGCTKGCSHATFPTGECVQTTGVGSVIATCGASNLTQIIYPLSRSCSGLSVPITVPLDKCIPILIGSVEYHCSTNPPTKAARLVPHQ
Sequence of Procathepsin L (P07711 whole entry): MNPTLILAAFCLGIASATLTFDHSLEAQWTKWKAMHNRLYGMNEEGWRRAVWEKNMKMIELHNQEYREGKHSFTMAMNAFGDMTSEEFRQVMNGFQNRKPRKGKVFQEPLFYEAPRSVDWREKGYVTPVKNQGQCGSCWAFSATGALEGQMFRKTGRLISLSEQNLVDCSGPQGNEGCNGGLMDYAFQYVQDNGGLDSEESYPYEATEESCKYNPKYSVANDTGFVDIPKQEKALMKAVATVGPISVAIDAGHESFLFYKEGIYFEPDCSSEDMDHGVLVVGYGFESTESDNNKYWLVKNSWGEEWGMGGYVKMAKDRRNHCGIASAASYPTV

SMILES	EC50 [1]	EC50 [2]	IC50 [3]	EC50 [4]	EC50 [5]	EC50 [6]	IC50 [7]	IC50 [8]	IC50 [9]
N#Cc1nc(NCc2cccc(-c3cc(Cl)cc(Cl)c3)c2)c2ncn(CCCO)c2n1	3300 nM	> 10000 nM	1200 nM	> 10000 nM	> 10000 nM	> 10000 nM	1100 nM	900 nM	
N#Cc1nc(NCc2cccc(-c3ccc(Cl)c(Cl)c3)c2)c2ncn(CCCO)c2n1	2300 nM	> 10000 nM	1200 nM	> 10000 nM	> 10000 nM	> 10000 nM	900 nM	1600 nM	
CN(C)c1cccc(-c2cccc(CNc3nc(C#N)nc4c3ncn4CCCO)c2)c1		> 10000 nM	1200 nM	> 10000 nM	> 10000 nM	> 10000 nM	900 nM	1400 nM	
COC(=O)c1cccc(-c2cccc(CNc3nc(C#N)nc4c3ncn4CCCO)c2)c1	2700 nM	> 10000 nM		> 10000 nM	> 10000 nM	> 10000 nM	500 nM		
C=Cc1cccc(-c2cccc(CNc3nc(C#N)nc4c3ncn4CCCO)c2)c1		> 10000 nM	800 nM	> 10000 nM	> 10000 nM	> 10000 nM			
C=Cc1ccc(-c2cccc(CNc3nc(C#N)nc4c3ncn4CCCO)c2)cc1		> 10000 nM	900 nM	> 10000 nM	> 10000 nM	> 10000 nM	1800 nM	1100 nM	
N#Cc1nc(NCc2cccc(-c3ccc4ccccc4c3)c2)c2ncn(CCCO)c2n1	1100 nM	> 10000 nM	230 nM	> 10000 nM	> 10000 nM	> 10000 nM	700 nM	800 nM	
N#Cc1nc(NCc2cccc(-c3ccco3)c2)c2ncn(CCCO)c2n1	1600 nM	> 10000 nM	1000 nM	> 10000 nM	> 10000 nM	> 10000 nM	310 nM	840 nM	
N#Cc1nc(NCc2cccc(-c3ccsc3)c2)c2ncn(CCCO)c2n1	430 nM	> 10000 nM	370 nM	> 10000 nM	> 10000 nM	> 10000 nM	240 nM	480 nM	
N#Cc1nc(NCc2cccc(-c3ccoc3)c2)c2ncn(CCCO)c2n1	560 nM	> 10000 nM	460 nM	> 10000 nM	> 10000 nM	> 10000 nM	30 nM	600 nM	
CC(C)Oc1c(Br)cccc1-c1cccc(CNc2nc(C#N)nc3c2ncn3CCCO)c1		> 10000 nM	900 nM	> 10000 nM	> 10000 nM	> 10000 nM	1500 nM	1300 nM	> 50000 nM
Cc1ccccc1-c1cccc(CNc2nc(C#N)nc3c2ncn3CCCO)c1			390 nM				> 50000 nM	1100 nM	
N#Cc1nc(NCc2cccc(-c3ccc(Cl)cc3)c2)c2ncn(CCCO)c2n1							1400 nM	1900 nM	
COc1ccc(-c2cccc(CNc3nc(C#N)nc4c3ncn4CCCO)c2)cc1		> 10000 nM	1200 nM	> 10000 nM	> 10000 nM	> 10000 nM	800 nM	1100 nM	
N#Cc1nc(NCc2cccc(-c3ccccc3)c2)c2ncn(CCCO)c2n1	1400 nM	> 10000 nM	1800 nM	> 10000 nM	> 10000 nM	> 10000 nM	700 nM	800 nM	
N#Cc1nc(NCc2cccc(-c3cccnc3)c2)c2ncn(CCCO)c2n1	1400 nM	> 10000 nM	600 nM	> 10000 nM	> 10000 nM	> 10000 nM	260 nM	1600 nM	

SMILES	EC50 [1]	EC50 [2]	IC50 [3]	EC50 [4]	EC50 [5]	EC50 [6]	IC50 [7]	IC50 [8]	IC50 [9]
N#Cc1nc(NCc2cccc(-c3cccs3)c2)c2ncn(CCCO)c2n1		> 10000 nM	600 nM	> 10000 nM	> 10000 nM	> 10000 nM	800 nM	900 nM	
N#Cc1nc(NCc2cccc(-c3ccccc3Cl)c2)c2ncn(CCCO)c2n1			1300 nM				20000 nM	16000 nM	
N#Cc1nc(NCc2cccc(-c3cccc(Cl)c3)c2)c2ncn(CCCO)c2n1	3700 nM	> 10000 nM	800 nM	> 10000 nM	> 10000 nM	> 10000 nM	1200 nM	700 nM	
N#Cc1nc(NCc2cccc(-c3c(F)c(F)c(F)c(F)c3F)c2)c2ncn(CCCO)c2n1		> 10000 nM	900 nM	> 10000 nM	> 10000 nM	> 10000 nM	5200 nM	2700 nM	
N#Cc1nc(NCc2cccc(-c3ccc4[nH]ccc4c3)c2)c2ncn(CCCO)c2n1	380 nM	> 10000 nM	250 nM	> 10000 nM	> 10000 nM	> 10000 nM	500 nM	190 nM	
CC(C)c1ccccc1-c1cccc(CNc2nc(C#N)nc3c2ncn3CCCO)c1	630 nM		310 nM					900 nM	
CC(=O)Nc1cccc(-c2cccc(CNc3nc(C#N)nc4c3ncn4CCCO)c2)c1	4100 nM	> 10000 nM	1600 nM	> 10000 nM	> 10000 nM	> 10000 nM			
COc1ncc(-c2cccc(CNc3nc(C#N)nc4c3ncn4CCCO)c2)c(OC)n1	5900 nM	> 10000 nM	2900 nM	> 10000 nM	> 10000 nM	> 10000 nM	4000 nM	6000 nM	> 15000 nM
COC(=O)c1ccccc1-c1cccc(CNc2nc(C#N)nc3c2ncn3CCCO)c1	700 nM		1000 nM				> 10000 nM	1400 nM	> 15000 nM
N#Cc1nc(NCc2cccc(-c3ccccc3C(F)(F)F)c2)c2ncn(CCCO)c2n1		> 10000 nM	280 nM	> 10000 nM	> 10000 nM	> 10000 nM	8000 nM	1500 nM	
COC(=O)c1ccc(-c2cccc(CNc3nc(C#N)nc4c3ncn4CCCO)c2)cc1	4000 nM	> 10000 nM	1600 nM	> 10000 nM	> 10000 nM	> 10000 nM	1200 nM	1800 nM	
N#Cc1nc(NCc2cccc(-c3cc4ccccc4n3S(=O)(=O)c3ccccc3)c2)c2ncn(CCCO)c2n1		> 10000 nM	> 15000 nM	> 10000 nM	> 10000 nM	> 10000 nM	9000 nM	1800 nM	> 50000 nM
Cc1cccc(C)c1-c1cccc(CNc2nc(C#N)nc3c2ncn3CCCO)c1			270 nM				> 15000 nM	1000 nM	
N#Cc1nc(NCc2cccc(-c3cn(S(=O)(=O)c4ccccc4)c4ccccc34)c2)c2ncn(CCCO)c2n1	2000 nM	> 10000 nM	> 15000 nM	> 10000 nM	> 10000 nM	> 10000 nM	2000 nM	1000 nM	> 50000 nM
N#Cc1nc(NCc2cccc(-c3ccc4cc[nH]c4c3)c2)c2ncn(CCCO)c2n1	800 nM	> 10000 nM	240 nM	> 10000 nM	> 10000 nM	> 10000 nM	260 nM	460 nM	
